The numbers were not newly measured in patent US20060062848A1, “Formulation comprising itraconazole” (Nektar Therapeutics UK Limited, priority 2004, published 2006), which cites them from elsewhere.

The structures appear in SMILES notation. In brackets after ≈: the same amount, converted by molar mass. Where two headings read alike, the source gives them in different places.

Take `CCC(C)n1ncn(-c2ccc(N3CCN(c4ccc(OCC5CO[C@](Cn6cncn6)(c6ccc(Cl)cc6Cl)O5)cc4)CC3)cc2)c1=O` (mixture of isomers) [itraconazole, (±) cis-4-[4-[4-[4-[[2-(2,4-dichlorphenyl)-2-(1H-1,2,4-triazol-1-ylmethyl)-1,3-dioxolan-4-yl]methoxy]phenyl]-1-piperazinyl]phenyl]-2,4-dihydro-2-(1-methylpropyl)-3H-1,2,4-triazol-3-one]: the aqueous solubility (in general, how much of the substance goes into solution per volume) runs as follows: (neutral pH) 0.001 µg/mL (≈ 0.00142 µM); (pH 1) 6 µg/mL (≈ 8.5 µM).
